Source: ChEMBL document CHEMBL1157697, “Novel ester and acid derivatives of the 1,5-diarylpyrrole scaffold as anti-inflammatory and analgesic agents. Synthesis and in vitro and in vivo biological evaluation” (J Med Chem, 2010)
Calls of active or inactive are those of the source. No cut-off for these calls is given here.

Columns and labels:
[1] = system: Rattus norvegicus; test: Antiinflammatory activity against carrageenan-induced paw edema rat inflammatory model assessed as paw pressure at 20 mg/kg, po after 30 mins; type: functional
[2] = system: Rattus norvegicus; test: Antiinflammatory activity against carrageenan-induced paw edema rat inflammatory model assessed as paw pressure at 20 mg/kg, po after 60 mins; type: functional
[3] = system: Rattus norvegicus; test: Antiinflammatory activity against carrageenan-induced paw edema rat inflammatory model assessed as paw pressure at 20 mg/kg, po after 120 mins; type: functional
[4] = system: Rattus norvegicus; test: Antiinflammatory activity against carrageenan-induced paw edema rat inflammatory model assessed as suppression of paw edema at 20 mg/kg, po after 60 mins; type: functional
[5] = species: Rattus norvegicus; test: Analgesic activity against zymosan-induced hyperalgesia in rat assessed maximum effect measured up to 2 hrs
[6] = species: Rattus norvegicus; test: Analgesic activity against zymosan-induced hyperalgesia in rat assessed maximum effect measured up to 6 hrs
[7] = system: Rattus norvegicus; test: Antiinflammatory activity against carrageenan-induced paw edema rat inflammatory model assessed as paw volume at 10 mg/kg, po after 60 mins
[8] = species: Mus musculus; test: Selectivity index, ratio of IC50 for mouse COX1 to IC50 for mouse COX2
[9] = system: Rattus norvegicus; test: Antiinflammatory activity against carrageenan-induced paw edema rat inflammatory model assessed as paw volume at 20 mg/kg, po after 60 mins; type: functional
[10] = Metabolic stability in human liver microsomes at 10 uM; type: ADME, Microsome; conditions: read-out: Stability
[11] = Metabolic stability in human liver microsomes at 0.1 uM; type: ADME, Microsome; conditions: read-out: Stability
[12] = target: T1, Prostaglandin G/H synthase 1 (Mus musculus, UniProt P22437)
T1 sequence (P22437 whole entry): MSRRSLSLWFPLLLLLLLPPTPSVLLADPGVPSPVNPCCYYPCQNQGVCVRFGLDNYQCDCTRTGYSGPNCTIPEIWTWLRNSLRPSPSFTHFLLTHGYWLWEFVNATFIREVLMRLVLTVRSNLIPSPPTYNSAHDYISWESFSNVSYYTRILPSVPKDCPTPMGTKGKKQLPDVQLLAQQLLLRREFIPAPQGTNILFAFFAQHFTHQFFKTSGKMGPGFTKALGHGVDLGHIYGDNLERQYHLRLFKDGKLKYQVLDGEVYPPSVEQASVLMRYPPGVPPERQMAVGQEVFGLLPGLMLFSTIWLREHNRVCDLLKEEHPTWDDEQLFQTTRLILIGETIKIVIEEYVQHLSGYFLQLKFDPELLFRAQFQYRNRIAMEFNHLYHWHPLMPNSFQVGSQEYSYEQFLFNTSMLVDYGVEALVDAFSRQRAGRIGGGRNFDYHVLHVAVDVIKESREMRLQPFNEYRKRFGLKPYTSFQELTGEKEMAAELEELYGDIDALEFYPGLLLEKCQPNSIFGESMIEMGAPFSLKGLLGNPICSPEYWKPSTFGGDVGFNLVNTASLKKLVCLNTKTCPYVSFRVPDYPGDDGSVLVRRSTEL
Description: Inhibition of COX1-dependent PGE2 production in LPS-stimulated mouse J774 cells by RIA

[13] = target: T2, Prostaglandin G/H synthase 2 (Mus musculus, UniProt Q05769)
T2 sequence (Q05769 whole entry): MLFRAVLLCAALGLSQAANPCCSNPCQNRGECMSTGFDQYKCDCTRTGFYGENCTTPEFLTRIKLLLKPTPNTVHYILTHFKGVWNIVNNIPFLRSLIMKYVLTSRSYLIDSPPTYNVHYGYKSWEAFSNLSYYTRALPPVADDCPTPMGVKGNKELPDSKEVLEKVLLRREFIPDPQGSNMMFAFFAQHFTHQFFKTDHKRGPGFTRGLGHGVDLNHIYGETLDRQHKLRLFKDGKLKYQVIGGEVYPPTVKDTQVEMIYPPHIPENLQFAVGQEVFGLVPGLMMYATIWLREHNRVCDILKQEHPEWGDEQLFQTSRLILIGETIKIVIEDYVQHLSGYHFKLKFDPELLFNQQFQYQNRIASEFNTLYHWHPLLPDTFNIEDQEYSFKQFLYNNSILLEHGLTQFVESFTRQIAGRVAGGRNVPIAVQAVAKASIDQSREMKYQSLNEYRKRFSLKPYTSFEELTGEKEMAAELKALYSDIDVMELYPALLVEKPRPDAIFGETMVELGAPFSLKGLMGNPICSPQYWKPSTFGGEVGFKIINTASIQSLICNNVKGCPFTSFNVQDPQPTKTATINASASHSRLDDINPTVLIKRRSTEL
Description: Inhibition of COX2-dependent PGE2 production in LPS-stimulated mouse J774 cells by RIA

[14] = system: Mus musculus; test: Analgesic activity against acetic acid-induced mouse abdominal constriction assessed as writhing at 20 mg/kg, po; conditions: Abdomen
[15] = system: Mus musculus; test: Analgesic activity against acetic acid-induced mouse abdominal constriction assessed as writhing at 10 mg/kg, po; conditions: Abdomen
[16] = target: Prostaglandin G/H synthase 1 (Homo sapiens, UniProt P23219); test: Inhibition of COX1 in human whole blood assessed as thromboxane B2 production by RIA; type: tissue-based
[17] = target: T3, Prostaglandin G/H synthase 2 (Homo sapiens, UniProt P35354); test: Inhibition of COX2 in human whole blood assessed as inhibition of LPS-induced PGE2 production by RIA; type: tissue-based
T3 sequence (P35354 whole entry): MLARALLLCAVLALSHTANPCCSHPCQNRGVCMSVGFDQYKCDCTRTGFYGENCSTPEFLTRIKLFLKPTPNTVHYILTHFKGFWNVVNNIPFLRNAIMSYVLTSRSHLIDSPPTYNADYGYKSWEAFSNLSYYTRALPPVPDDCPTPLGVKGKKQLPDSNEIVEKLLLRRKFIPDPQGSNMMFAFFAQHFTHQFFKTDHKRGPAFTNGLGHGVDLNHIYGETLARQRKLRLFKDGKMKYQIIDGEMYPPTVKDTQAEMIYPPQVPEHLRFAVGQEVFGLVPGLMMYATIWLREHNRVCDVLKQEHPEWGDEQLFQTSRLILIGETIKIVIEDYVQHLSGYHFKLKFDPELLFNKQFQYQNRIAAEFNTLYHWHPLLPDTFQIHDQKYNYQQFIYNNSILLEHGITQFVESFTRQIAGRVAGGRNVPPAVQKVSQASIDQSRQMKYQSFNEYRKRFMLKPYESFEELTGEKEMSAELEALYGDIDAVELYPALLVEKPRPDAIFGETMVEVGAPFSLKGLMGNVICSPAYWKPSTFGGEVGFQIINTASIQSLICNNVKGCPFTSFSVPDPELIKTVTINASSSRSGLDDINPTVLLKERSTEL

[18] = system: Mus musculus; test: Analgesic activity against acetic acid-induced po dosed mouse abdominal constriction assessed as writhing; conditions: Abdomen
[19] = species: Mus musculus; test: Toxicity in Swiss mouse assessed as number of falls in 30 seconds after 30 mins by rotarod test; type: organism-based; conditions: in vivo, 0.5 h
[20] = species: Mus musculus; test: Toxicity in Swiss mouse assessed as number of falls in 30 seconds after 45 mins by rotarod test; type: organism-based; conditions: in vivo, 0.75 h
[21] = species: Mus musculus; test: Toxicity in Swiss mouse assessed as number of falls in 30 seconds after 60 mins by rotarod test; type: organism-based; conditions: in vivo, 1 h
[22] = Oral bioavailability in Sprague-Dawley rat at 10 mg/kg; type: ADME, organism-based; conditions: in vivo
[23] = Clearance in Sprague-Dawley rat at 10 mg/kg, iv; type: ADME, organism-based; design: dose 10 mg/kg, route intravenous; conditions: in vivo
[24] = system: Rattus norvegicus; test: Rate of blood flow in Sprague-Dawley rat at 10 mg/kg, iv; type: ADME, organism-based; design: dose 10 mg/kg, route intravenous; conditions: in vivo
[25] = Volume of distribution in Sprague-Dawley rat at 10 mg/kg, iv; type: ADME, organism-based; design: dose 10 mg/kg, route intravenous; conditions: in vivo
[26] = species: Mus musculus; test: Toxicity in Swiss mouse assessed as number of falls in 30 seconds after 15 mins by rotarod test; type: organism-based; conditions: in vivo, 0.25 h
[27] = system: Rattus norvegicus; test: Antiinflammatory activity against carrageenan-induced paw edema rat inflammatory model assessed as paw volume at 10 mg/kg, po after 60 mins; type: functional
[28] = system: Rattus norvegicus; test: Antiinflammatory activity against carrageenan-induced paw edema rat inflammatory model assessed as paw pressure at 10 mg/kg, po after 30 mins; type: functional
[29] = system: Rattus norvegicus; test: Antiinflammatory activity against carrageenan-induced paw edema rat inflammatory model assessed as paw pressure at 10 mg/kg, po after 60 mins; type: functional
[30] = system: Rattus norvegicus; test: Antiinflammatory activity against carrageenan-induced paw edema rat inflammatory model assessed as paw pressure at 10 mg/kg, po after 120 mins; type: functional
[31] = system: Rattus norvegicus; test: Antiinflammatory activity against carrageenan-induced paw edema rat inflammatory model assessed as suppression of paw edema at 10 mg/kg, po after 60 mins; type: functional

Chain of Prostaglandin G/H synthase 1 (Homo sapiens, UniProt P23219) (P23219 whole entry): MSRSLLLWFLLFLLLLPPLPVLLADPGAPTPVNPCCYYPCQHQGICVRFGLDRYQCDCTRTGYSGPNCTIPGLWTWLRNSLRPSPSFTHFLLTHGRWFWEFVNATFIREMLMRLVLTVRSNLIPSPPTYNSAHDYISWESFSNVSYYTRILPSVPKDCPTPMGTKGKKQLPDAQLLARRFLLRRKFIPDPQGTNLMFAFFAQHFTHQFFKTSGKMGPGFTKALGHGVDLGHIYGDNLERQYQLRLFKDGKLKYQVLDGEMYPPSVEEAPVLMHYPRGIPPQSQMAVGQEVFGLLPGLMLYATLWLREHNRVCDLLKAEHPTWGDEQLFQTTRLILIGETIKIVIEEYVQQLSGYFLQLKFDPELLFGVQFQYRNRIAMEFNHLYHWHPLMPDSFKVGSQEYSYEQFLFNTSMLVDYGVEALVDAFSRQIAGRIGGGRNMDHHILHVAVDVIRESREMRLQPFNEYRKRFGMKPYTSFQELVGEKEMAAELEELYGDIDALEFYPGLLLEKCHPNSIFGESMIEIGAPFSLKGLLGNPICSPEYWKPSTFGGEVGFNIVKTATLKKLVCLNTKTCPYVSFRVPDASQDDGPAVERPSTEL

| SMILES | Activity [1] [g] | Activity [2] [g] | Activity [3] [g] | Activity [4] [%] | Activity [5] [%] | Activity [6] [%] | Ratio IC50 [8] | Activity [9] [mL] | remaining at 10 µM [10] [%] | remaining at 0.1 µM [11] [%] | IC50 [12] [µM] | IC50 [13] [µM] | Activity [14] | IC50 [16] [µM] | IC50 [17] [µM] | Activity [18] | other results |
| --- | --- | --- | --- | --- | --- | --- | --- | --- | --- | --- | --- | --- | --- | --- | --- | --- | --- |
| Cc1ccc(-c2cc(C(F)(F)F)nn2-c2ccc(S(N)(=O)=O)cc2)cc1 [CELECOXIB] | 56.5 | 58.2 | 55.2 | 95.5 | 30 | 35 | – | – | – | – | – | – | – | – | – | – | Activity [7]: 1.33 mL |
| CCCCOC(=O)Cc1cc(-c2ccc(S(C)(=O)=O)cc2)n(-c2ccc(OC)cc2)c1C | 53.4 | 51.4 | 50.8 | 89.1 | – | – | > 2600 | 1.45 | 2 | 5 | > 100 | 0.038 | Active | – | – | – | Activity [15]: Active |
| Cc1c(CC(=O)O)cc(-c2ccc(S(C)(=O)=O)cc2)n1-c1cccc(F)c1 | 54.8 | 55.2 | 43.1 | 93.6 | – | – | > 3500 | 1.35 | 100 | 100 | > 100 | 0.028 | Active | 125 | 17 | Dose-dependent effect | – |
| Cc1c(CC(=O)O)cc(-c2ccc(S(C)(=O)=O)cc2)n1-c1ccccc1 | 48.6 | 51.8 | 41.6 | 42.7 | – | – | > 100 | 1.86 | 97 | 94 | – | – | – | 132 | 7 | – | – |
| Cc1c(CC(=O)OC(C)C)cc(-c2ccc(S(C)(=O)=O)cc2)n1-c1cccc(F)c1 | 59.5 | 57.9 | 45.2 | 87.2 | – | – | > 2300 | 1.31 | 1 | 0 | > 100 | 0.043 | – | 24 | 2 | Dose-dependent effect | – |
| Cc1c(CC(=O)OC(C)C)cc(-c2ccc(S(C)(=O)=O)cc2)n1-c1ccccc1 | – | – | – | – | 75 | 70 | – | – | 1 | 11 | > 100 | 0.0073 | – | 20 | 2.5 | Dose-dependent effect | Activity [19]: Non-toxic; Activity [20]: Non-toxic; Activity [21]: Non-toxic; bioavailability [22]: 42%; clearance [23]: 33.3 mL/min; LBF [24]: 0.8 L/h; Vd [25]: 5.6 L; Activity [26]: Non-toxic; Activity [27]: 1.26 mL; Activity [28]: 56.2 g; Activity [29]: 51.8 g; Activity [30]: 48.8 g; Activity [31]: 100% |
